Experimental data: PubChem BioAssay AID248 (DTP/NCI, 2004)
Several values for one entry are separate records, joined by “and”; a condition that tells them apart may be missing. Equal entries are not always repeated. Inconclusive results and toxic doses are left out. Rule as the data show it: active = T/C of 150% or more; inactive = T/C below 125%.

Test system: L1210 leukemia ip in BDF1 mice, survival T/C
Experiment: NCI In Vivo Anticancer Drug Screen. Data for tumor model L1210 Leukemia (intraperitoneal) in B6D2F1 (BDF1) mice
Conditions: endpoint: mean survival time, higher = longer survival
Summary of the method: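 In this screen, tumor-bearing mice given compound are compared to those given vehicle, and their survival values are reported as a treated-to-control quotient.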

[1] = dose: 100.0 mg/kg/injection, schedule: Q01DX001 (ip), vehicle: saline
[2] = dose: 100.0 mg/kg/injection, schedule: Q04DX003 (ip), vehicle: saline with Tween-80
[3] = dose: 200.0 mg/kg/injection, schedule: Q01DX001 (ip), vehicle: saline
[4] = dose: 200.0 mg/kg/injection, schedule: Q04DX003 (ip), vehicle: saline with Tween-80
[5] = dose: 400.0 mg/kg/injection, schedule: Q04DX003 (ip), vehicle: saline with Tween-80
[6] = dose: 100.0 mg/kg/injection, schedule: Q04DX003 (ip), vehicle: saline
[7] = dose: 200.0 mg/kg/injection, schedule: Q04DX003 (ip), vehicle: saline
[8] = dose: 400.0 mg/kg/injection, schedule: Q04DX003 (ip), vehicle: saline
[9] = dose: 100.0 mg/kg/injection, schedule: Q01DX009 (ip), vehicle: saline with Tween-80
[10] = dose: 200.0 mg/kg/injection, schedule: Q01DX009 (ip), vehicle: saline with Tween-80
[11] = dose: 400.0 mg/kg/injection, schedule: Q01DX009 (ip), vehicle: saline with Tween-80
[12] = dose: 100.0 mg/kg/injection, schedule: Q01DX001 (ip), vehicle: carboxymethylcellulose (CMC)
[13] = dose: 200.0 mg/kg/injection, schedule: Q01DX001 (ip), vehicle: carboxymethylcellulose (CMC)
[14] = dose: 400.0 mg/kg/injection, schedule: Q01DX001 (ip), vehicle: carboxymethylcellulose (CMC)
[15] = dose: 100.0 mg/kg/injection, schedule: Q01DX009 (ip), vehicle: Klucel (hydroxypropylcellulose) (HPC)
[16] = dose: 200.0 mg/kg/injection, schedule: Q01DX009 (ip), vehicle: Klucel (hydroxypropylcellulose) (HPC)
[17] = dose: 400.0 mg/kg/injection, schedule: Q01DX009 (ip), vehicle: Klucel (hydroxypropylcellulose) (HPC)
[18] = dose: 100.0 mg/kg/injection, schedule: Q04DX002 (ip), vehicle: saline with Tween-80
[19] = dose: 200.0 mg/kg/injection, schedule: Q04DX002 (ip), vehicle: saline with Tween-80
[20] = dose: 400.0 mg/kg/injection, schedule: Q04DX002 (ip), vehicle: saline with Tween-80

Measured: T/C

N/N=C(/C(=O)c1ccccc1)c1ccccc1
inactive: [1] 102 % of control | [2] 100 % of control | [3] 96 % of control | [4] 95 % of control | dose: 400.0 mg/kg/injection, schedule: Q01DX001 (ip), vehicle: saline 96 % of control | [5] 100 % of control

O=C(O)CNC(=O)c1ccc(C(=O)NCC(=O)O)cc1
inactive: [6] 106 % of control | [7] 105 % of control | [8] 97 % of control

COc1cc(/C=N/NC(=O)c2ccccc2)cc(OC)c1OC
inactive: [9] 97 % of control | [2] 90 % of control | [10] 92 % of control | [4] 91 % of control | [11] 97 % of control | [5] 90 % of control

CC1=NC(C#N)=C(C#N)N=C(c2ccccc2)C1
inactive: dose: 100.0 mg/kg/injection, schedule: Q01DX009 (ip), vehicle: gum acacia 99 % of control | dose: 200.0 mg/kg/injection, schedule: Q01DX009 (ip), vehicle: gum acacia 91 % of control

CC(=O)Oc1ccc(Br)cc1C=O
inactive: [12] 100 % of control | [13] 94 % of control | [14] 103 % of control

CC(=O)OCCC[P+](c1ccccc1)(c1ccccc1)c1ccccc1
inactive: [1] 102 % of control | [3] 110 % of control

CC(CC(=O)O)NC(=O)OCc1ccccc1 (stereo unspecified)
inactive: dose: 100.0 mg/kg/injection, schedule: Q01DX001 (ip), vehicle: saline with Tween-80 101 % of control | [9] 100 % of control and 107 % of control | [2] 103 % of control | dose: 200.0 mg/kg/injection, schedule: Q01DX001 (ip), vehicle: saline with Tween-80 98 % of control | [10] 97 % of control and 90 % of control | [4] 94 % of control | dose: 400.0 mg/kg/injection, schedule: Q01DX001 (ip), vehicle: saline with Tween-80 95 % of control | [11] 100 % of control and 90 % of control | [5] 97 % of control

OC1C2CC3CC(C2)CC1C3 (stereo unspecified)
inactive: dose: 100.0 mg/kg/injection, schedule: Q04DX002 (ip), vehicle: Klucel (hydroxypropylcellulose) (HPC) 102 % of control | dose: 200.0 mg/kg/injection, schedule: Q04DX002 (ip), vehicle: Klucel (hydroxypropylcellulose) (HPC) 98 % of control | dose: 400.0 mg/kg/injection, schedule: Q04DX002 (ip), vehicle: Klucel (hydroxypropylcellulose) (HPC) 94 % of control

C[N+](C)(C)Cn1nnc2ccccc21
inactive: dose: 75.0 mg/kg/injection, schedule: Q01DX001 (ip), vehicle: saline 105 % of control | dose: 150.0 mg/kg/injection, schedule: Q01DX001 (ip), vehicle: saline 108 % of control

COc1ccc(OCCS(=O)(=O)C(CCOS(C)(=O)=O)COS(C)(=O)=O)cc1 (stereo unspecified)
inactive: [15] 96 % of control | [16] 93 % of control | [17] 98 % of control

COc1ccc(CCN=C(c2ccccc2)c2ccccc2)cc1OC
inactive: [6] 94 % of control | [7] 94 % of control | [8] 97 % of control

CCCC(C(=O)O)N(C)Cc1ccccc1 (stereo unspecified)
inactive: dose: 100.0 mg/kg/injection, schedule: Q01DX009 (ip), vehicle: acetone 92 % of control | dose: 200.0 mg/kg/injection, schedule: Q01DX009 (ip), vehicle: acetone 101 % of control | dose: 400.0 mg/kg/injection, schedule: Q01DX009 (ip), vehicle: acetone 97 % of control

CCOc1cc(/C=N\N=C\c2ccc(O)c(OCC)c2)ccc1O
inactive: [15] 93 % of control | [16] 94 % of control | [17] 88 % of control

O=C(O)C1CCC2SC(F)(F)C(F)(F)C2C1 (stereo unspecified)
inactive: [2] 98 % of control | [4] 96 % of control | [5] 98 % of control

CC(C)(C)C1CCC(Cl)C(O)C1 (stereo unspecified)
inactive: dose: 100.0 mg/kg/injection, schedule: Q01DX009 (ip), vehicle: saline 104 % of control | dose: 200.0 mg/kg/injection, schedule: Q01DX009 (ip), vehicle: saline 100 % of control

Nc1ccc2c(c1)C(=O)c1c(F)c(F)c(F)c(F)c1-2
inactive: dose: 50.0 mg/kg/injection, schedule: Q01DX001 (ip), vehicle: carboxymethylcellulose (CMC) 97 % of control | [12] 103 % of control | [13] 97 % of control | [14] 100 % of control

c1ccc(P(CCP(CCP(c2ccccc2)c2ccccc2)c2ccccc2)CCP(c2ccccc2)c2ccccc2)cc1 (stereo unspecified)
inactive: [18] 90 % of control | dose: 100.0 mg/kg/injection, schedule: Q04DX002 (ip), vehicle: saline 101 % of control | dose: 100.0 mg/kg/injection, schedule: Q04DX003 (ip), vehicle: Klucel (hydroxypropylcellulose) (HPC) 95 % of control and 101 % of control | [19] 96 % of control | dose: 200.0 mg/kg/injection, schedule: Q04DX002 (ip), vehicle: saline 96 % of control | dose: 200.0 mg/kg/injection, schedule: Q04DX003 (ip), vehicle: Klucel (hydroxypropylcellulose) (HPC) 96 % of control and 102 % of control | [20] 93 % of control | dose: 400.0 mg/kg/injection, schedule: Q04DX002 (ip), vehicle: saline 101 % of control | dose: 400.0 mg/kg/injection, schedule: Q04DX003 (ip), vehicle: Klucel (hydroxypropylcellulose) (HPC) 93 % of control

CC[N+](C)(CC)/N=C(\C)c1ccccc1
inactive: [2] 105 % of control

O=C(O)c1cc2c(Br)cccc2c2cc(C(F)(F)F)ccc12
inactive: [2] 97 % of control | [4] 113 % of control

CCOC(=O)COCC(=O)OCC
inactive: [18] 98 % of control | [19] 98 % of control | [20] 102 % of control

CCCCOP(=S)(N1CCCCC1)N1CCCCC1
inactive: [18] 96 % of control | [19] 96 % of control | [20] 107 % of control

CC(=O)n1cc(C2CC(=O)OC3=C2CC(=O)C(C)(C)C3)c2ccccc21 (stereo unspecified)
inactive: [9] 100 % of control | [2] 95 % of control | [10] 96 % of control | [4] 101 % of control | [11] 91 % of control | [5] 101 % of control
